Test results reported in patent publication US20250188110A1, “SPECIFIC SMALL MOLECULE INHIBITORS THAT BLOCK KMT9 METHYLTRANSFERASE ACTIVITY AND FUNCTION” (ALBERT-LUDWIGS-UNIVERSITÄT FREIBURG, priority 2021, published 2025).
Like-named read-outs stand apart in the source and are kept apart here.

Key:
KMT9 [1] = molecular target: T1, KMT9 (Homo sapiens, UniProt Q9Y5N5); assay: Microscale thermophoresis (MST) KMT9 binding
T1 sequence (Q9Y5N5 1-214): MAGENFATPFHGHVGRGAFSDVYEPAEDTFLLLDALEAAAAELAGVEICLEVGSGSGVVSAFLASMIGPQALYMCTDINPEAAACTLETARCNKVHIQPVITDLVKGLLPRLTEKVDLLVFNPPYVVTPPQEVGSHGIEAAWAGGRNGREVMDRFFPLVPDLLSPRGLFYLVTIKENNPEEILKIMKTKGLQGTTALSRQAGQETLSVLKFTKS
T1 sequence (Q9UI30 1-120 isoform Q9UI30-2 partner): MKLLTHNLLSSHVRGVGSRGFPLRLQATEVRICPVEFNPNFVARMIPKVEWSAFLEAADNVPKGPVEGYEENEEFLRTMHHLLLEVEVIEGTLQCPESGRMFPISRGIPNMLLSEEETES
Outline: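 His-tagged KMT9 (20 nM), RED-Tris-NTA labelled, titrated with varying compound concentrations in 25 mM HEPES pH 7.5, 100 mM NaCl, 1 mM DTT, 0.05% Tween. MST at 40% MST and 100% LED power, Nano-RED excitation; Kd binned A ≤10 nM, B 10–100, C 100–1000, D >1000 nM.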

KMT9 [2] = molecular target: T1, KMT9; assay: KMT9 thermal shift assay (SyproOrange); format: binding
Outline: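 Recombinant KMT9 was incubated with compound and SyproOrange at 25° C in 50 mM BTP pH 8.5, 1 mM MgCl2, 1 mM DTT. It was then heated from 20° C to 95° C at 1° C per 15 s with fluorescence read each step. Tm came from a Boltzmann sigmoidal fit; ΔTm relative to DMSO control, binned in 5 K ranges.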

KMT9 [3] = molecular target: T1, KMT9; assay: KMT9 methyltransferase inhibition assay, MTaseGlo luminescence (from entry 155); format: biochemical; conditions: 100 nM KMT9, 5 μM ETF1, 1 μM SAM
Outline: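 KMT9 (100 nM final) pre-incubated with inhibitor for 15 min at room temperature, then reacted with 5 μM ETF1 and 1 μM SAM for 2 h at 30° C. at 2% DMSO final. MTaseGlo luminescence read after 60 min detection; IC50 reported in four potency bins.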

[4] = His-tag labelled KMT9 20 nM, read-out: MST (Kd)
[5] = 500 µM compound, 2 μM KMT9, read-out: Thermal shift (ΔTm)
[6] = MTaseGlo procedure (entries from 155), read-out: Inhibition (IC50)
[7] = His-tag labelled KMT9 20 nM, Kd class, read-out: MST
[8] = ΔTm class, 500 uM compound, 2 μM KMT9, read-out: Thermal shift
[9] = IC50 class, MTaseGlo procedure (entries from 155 on), read-out: Inhibition
[10] = microscale thermophoresis, His-tag labelled KMT9 (20 nM), read-out: MST
[11] = ΔTm, 500 µM compound, 2 μM KMT9, 5X SO, read-out: Thermal shift
[12] = from entry 155: MTaseGlo assay, read-out: Inhibition

Structure (SMILES) | Kd (KMT9 [1]; [4]) | ΔTm at 500 µM (KMT9 [2]; [5]) | IC50 (KMT9 [3]; [6]) | Kd (KMT9 [1]; [7]) | ΔTm at 500 µM (KMT9 [2]; [8]) | IC50 (KMT9 [3]; [9]) | other results
Nc1nc(Cl)nc2c1ccn2[C@@H]1C[C@H](c2cc[nH]c(=O)c2)[C@@H](O)[C@H]1O [Compound 662, 4-[(1R,2R,3S,4R)-4-{4-Amino-2-chloropyrrolo[2,3-d]pyrimidin-7-yl}-2,3-dihydroxycyclopentyl]-1H-pyridin-2-one] | 100 to 1000 nM | ≤ 10 °C | 1000 to 10000 nM | – | – | – | –
Nc1nc(Cl)nc2c1c(Br)cn2[C@@H]1C[C@H](CN(CCCNCCc2ccc(F)cc2)c2cn[nH]c2)[C@@H](O)[C@H]1O [Compound 538, (1R,2S,3R,5R)-3-(4-amino-5-bromo-2-chloro-7H-pyrrolo[2,3-d]pyrimidin-7-yl)-5-(((3-((4-fluorophenethyl)amino)propyl)(1H-pyrazol-4-yl)amino)methyl)cyclopentane-1,2-diol] | ≤ 10 nM | 15 to 20 °C | 100 to 1000 nM | – | – | – | –
Nc1ncnc2c1c(-c1nccs1)cn2[C@@H]1C[C@H](c2ccccc2)[C@@H](O)[C@H]1O [Compound 395, (1R,2S,3R,5R)-3-(4-amino-5-(thiazol-2-yl)-7H-pyrrolo[2,3-d]pyrimidin-7-yl)-5-phenylcyclopentane-1,2-diol] | – | – | – | – | – | – | Kd (KMT9 [1]; [10]): > 1000 nM; ΔTm at 500 µM (KMT9 [2]; [11]): ≤ 10 °C; IC50 (KMT9 [3]; [12]): > 10000 nM
COc1csc(-c2cn([C@@H]3C[C@H](CNCCCNCCc4ccccc4)[C@@H](O)[C@H]3O)c3ncncc23)n1 [Compound 615, (1R,2S,3R,5R)-3-(5-(4-Methoxythiazol-2-yl)-7H-pyrrolo[2,3-d]pyrimidin-7-yl)-5-(((3-(phenethylamino)propyl)amino)methyl)cyclopentane-1,2-diol] | – | – | – | > 1000 nM | ≤ 10 °C | > 10000 nM | –
O[C@@H]1[C@@H](CNCCCNCCc2ccccc2)C[C@@H](n2cc3c4c(ncnc42)NCCCC3)[C@@H]1O [Compound 631, (1S,2R,3R,5R)-3-(((3-(phenethylamino)propyl)amino)methyl)-5-(7,8,9,10-tetrahydro-2,3,5,6-tetraazacycloocta [cd]inden-2 (6H)-yl)cyclopentane-1,2-diol] | – | – | – | – | – | – | Kd (KMT9 [1]; [10]): 10 to 100 nM; ΔTm at 500 µM (KMT9 [2]; [11]): 10 to 15 °C; IC50 (KMT9 [3]; [12]): 1000 to 10000 nM
Nc1nc(Cl)nc2c1c(-c1nc(Cc3ccccc3)cs1)cn2[C@@H]1C[C@H](CNCCCNCCc2ccccc2)[C@@H](O)[C@H]1O [Compound 635, (1R,2S,3R,5R)-3-(4-Amino-5-(4-benzylthiazol-2-yl)-2-chloro-7H-pyrrolo[2,3-d]pyrimidin-7-yl)-5-(((3-(phenethylamino)propyl)amino)methyl)cyclopentane-1,2-diol] | – | – | – | – | – | – | Kd (KMT9 [1]; [10]): 100 to 1000 nM; ΔTm at 500 µM (KMT9 [2]; [11]): 15 to 20 °C; IC50 (KMT9 [3]; [12]): 100 to 1000 nM
Cn1cc(Cl)c(-c2cn([C@@H]3C[C@H](c4cccc(CN5CCC5)c4)[C@@H](O)[C@H]3O)c3nc(Cl)nc(N)c23)n1 [Compound 675, (1R,2S,3R,5R)-3-(4-amino-2-chloro-5-(4-chloro-1-methyl-1H-pyrazol-3-yl)-7H-pyrrolo[2,3-d]pyrimidin-7-yl)-5-(3-(azetidin-1-ylmethyl)phenyl)cyclopentane-1,2-diol] | ≤ 10 nM | 15 to 20 °C | 100 to 1000 nM | – | – | – | –
O[C@@H]1[C@@H](CNCCCNCCc2ccc(F)cc2)C[C@@H](n2cc(-c3cc(Cc4ccccc4)cs3)c3cncnc32)[C@@H]1O [Compound 618, (1R,2S,3R,5R)-3-[5-(4-Benzylthiophen-2-yl)pyrrolo[2,3-d]pyrimidin-7-yl]-5-{[(3-{[2-(4-fluorophenyl)ethyl]amino}propyl)amino]methyl}cyclopentane-1,2-diol] | – | – | – | 100 to 1000 nM | 10 to 15 °C | 1000 to 10000 nM | –
Nc1ncnc2c1ccn2[C@@H]1C[C@H]([C@@H]2CCCN2)[C@@H](O)[C@H]1O [Compound 399, (1R,2S,3R,5R)-3-(4-amino-7H-pyrrolo[2,3-a]pyrimidin-7-yl)-5-((S)-pyrrolidin-2-yl) cyclopentane-1,2-diol] | > 1000 nM | ≤ 10 °C | > 10000 nM | – | – | – | –
O[C@@H]1[C@@H](CNCCCNCCc2ccccc2)C[C@@H](n2cc(-c3nc(Cc4ccccc4)cs3)c3cncnc32)[C@@H]1O [Compound 613, (1R,2S,3R,5R)-3-(5-(4-benzylthiazol-2-yl)-7H-pyrrolo[2,3-d]pyrimidin-7-yl)-5-(((3-(phenethylamino)propyl)amino)methyl)cyclopentane-1,2-diol] | – | – | – | – | – | – | Kd (KMT9 [1]; [10]): > 1000 nM; ΔTm at 500 µM (KMT9 [2]; [11]): 10 to 15 °C; IC50 (KMT9 [3]; [12]): 1000 to 10000 nM
Nc1ncnc2c1ccn2[C@@H]1C[C@H](c2cccc(-c3cn[nH]c3)c2)[C@@H](O)[C@H]1O [Compound 652, (15,2R,3R,5R)-3-(3-(1H-pyrazol-4-yl)phenyl)-5-(4-amino-7H-pyrrolo[2,3-d]pyrimidin-7-yl)cyclopentane-1,2-diol] | – | – | – | > 1000 nM | ≤ 10 °C | > 10000 nM | –
CN(CCCNCCc1ccccc1)C[C@H]1C[C@@H](n2cc(-c3cc(Cc4ccccc4)cs3)c3cncnc32)[C@H](O)[C@@H]1O [Compound 620, (1R,2S,3R,5R)-3-[5-(4-Benzylthiophen-2-yl)pyrrolo[2,3-d]pyrimidin-7-yl]-5-{[methyl({3-[(2-phenylethyl)amino]propyl})amino]methyl}cyclopentane-1,2-diol] | – | – | – | 100 to 1000 nM | 10 to 15 °C | 1000 to 10000 nM | –
CCc1cn([C@@H]2C[C@H](CNCCCNCCc3ccc(F)cc3F)[C@@H](O)[C@H]2O)c2ncnc(N)c12 [Compound 383, (1R,2S,3R,5R)-3-(4-amino-5-ethyl-7H-pyrrolo[2,3-d]pyrimidin-7-yl)-5-(((3-((2,4-difluorophenethyl)amino)propyl)amino)methyl) cyclopentane-1,2-diol] | – | – | – | – | – | – | Kd (KMT9 [1]; [10]): 10 to 100 nM; ΔTm at 500 µM (KMT9 [2]; [11]): 10 to 15 °C; IC50 (KMT9 [3]; [12]): 1000 to 10000 nM

Second part, led by results:

Kd (KMT9 [1]; [4]) | ΔTm at 500 µM (KMT9 [2]; [5]) | IC50 (KMT9 [3]; [6]) | Kd (KMT9 [1]; [7]) | ΔTm at 500 µM (KMT9 [2]; [8]) | IC50 (KMT9 [3]; [9]) | Structure (SMILES) | other results
100 to 1000 nM | ≤ 10 °C | 1000 to 10000 nM | – | – | – | COc1cc(OC)cc([C@H]2C[C@@H](n3cc(-c4ccn(Cc5ccccc5)n4)c4c(N)nc(Cl)nc43)[C@H](O)[C@@H]2O)c1 [Compound 679, (1R,2S,3R,5R)-3-[4-amino-5-(1-benzylpyrazol-3-yl)-2-chloropyrrolo[2,3-d]pyrimidin-7-yl]-5-(3,5-dimethoxyphenyl)cyclopentane-1,2-diol] | –
– | – | – | 10 to 100 nM | 15 to 20 °C | 1000 to 10000 nM | CN1CCC([C@H]2C[C@@H](n3cc(-c4ccn(S(=O)(=O)c5ccccc5)n4)c4cnc(Cl)nc43)[C@H](O)[C@@H]2O)CC1 [Compound 495, (1R,2S,3R,5R)-3-(2-Chloro-5-(1-(phenylsulfonyl)-1H-pyrazol-3-yl)-7H-pyrrolo[2,3-d]pyrimidin-7-yl)-5-(1-methylpiperidin-4-yl)cyclopentane-1,2-diol] | –
> 1000 nM | ≤ 10 °C | > 10000 nM | – | – | – | CNc1nc(Cl)nc2c1ccn2[C@@H]1C[C@H](c2cn[nH]c2)[C@@H](O)[C@H]1O [Compound 583, (1R,2S,3R,5R)-3-[2-chloro-4-(methylamino)pyrrolo[2,3-d]pyrimidin-7-yl]-5-(1H-pyrazol-4-yl)cyclopentane-1,2-diol] | –
– | – | – | ≤ 10 nM | > 20 °C | 100 to 1000 nM | CC(C)N1CCC([C@H]2C[C@@H](n3cc(-c4nc(Cc5ccccc5)cs4)c4c(N)nc(Cl)nc43)[C@H](O)[C@@H]2O)CC1 [Compound 506, (1R,2S,3R,5R)-3-[4-amino-5-(4-benzyl-1,3-thiazol-2-yl)-2-chloropyrrolo[2,3-d]pyrimidin-7-yl]-5-(1-isopropylpiperidin-4-yl)cyclopentane-1,2-diol] | –
≤ 10 nM | 15 to 20 °C | 1000 to 10000 nM | – | – | – | Nc1nc(Cl)nc2c1c(-c1nc(Cc3ccccc3)cs1)cn2[C@@H]1C[C@H](C2CCN(Cc3ccco3)CC2)[C@@H](O)[C@H]1O [Compound 525, (1R,2S,3R,5R)-3-(4-amino-5-(4-benzylthiazol-2-yl)-2-chloro-7H-pyrrolo[2,3-d]pyrimidin-7-yl)-5-(1-(furan-2-ylmethyl)piperidin-4-yl)cyclopentane-1,2-diol] | –
10 to 100 nM | ≤ 10 °C | 1000 to 10000 nM | – | – | – | Nc1nc(Cl)nc2c1ccn2[C@@H]1C[C@H](c2cccc(OC(F)F)c2)[C@@H](O)[C@H]1O [Compound 676, (1R,2S,3R,5R)-3-{4-amino-2-chloropyrrolo[2,3-d]pyrimidin-7-yl}-5-[3-(difluoromethoxy)phenyl]cyclopentane-1,2-diol] | –
